Experimental findings from patent publication US9763943B2, “Trk-inhibiting compound” (ONO PHARMACEUTICAL CO., LTD., priority 2013, dated 2017) are described below.

The test system of the first test is sodium monoiodoacetate (MIA)-induced model rats. The experiment in a line: Analgesic effect on sodium monoiodoacetate-induced model rats (right hind limb weight load ratio). It is filed as in vivo, rat. Particulars: day 24, positive control drug, 10 mg/kg subcutaneous, 1 hour after administration (Table 7).
As for `COc1cccc(C2(O)CCCCC2CN(C)C)c1` (stereo not shown) [Tramadol, reference compound], the “Percent improvement (%)” value is 43%.

Staying with this test, now noted: day 24, test substance oral twice a day over 10 days, 3 hours after last administration, experiment with morphine as positive control (Table 8).
As to `Nc1ncc(F)cc1-c1ccc(Oc2ncc(NC(=O)Nc3cc(C(F)(F)F)ccc3-c3cccnc3)cn2)cc1` [Example 14-6, 1-(2-(4-(2-amino-5-fluoropyridin-3-yl)phenoxy)pyrimidin-5-yl)-3-(2-(pyridin-3-yl)-5-(trifluoromethyl)phenyl)urea], the “Percent improvement (%)” value amounted to 53%. The same measure, in the same setting: next, `Nc1ncc(C(F)(F)F)cc1-c1ccc(Oc2ncc(NC(=O)Nc3cc(C(F)(F)F)ccc3-n3ccc(C(F)(F)F)n3)cn2)cc1` [Example 15-52, 1-(2-{4-[2-amino-5-(trifluoromethyl)-3-pyridinyl]phenoxy}-5-pyrimidinyl)-3-{5-(trifluoromethyl)-2-[3-(trifluoromethyl)-1H-pyrazol-1-yl]phenyl}urea]: 60%; `Nc1ncc(Cl)cc1-c1ccc(Oc2ncc(NC(=O)Nc3cc(C(F)(F)F)ccc3-c3ccccc3)cn2)cc1` [Example 15-55, 1-{2-[4-(2-amino-5-chloro-3-pyridinyl)phenoxy]-5-pyrimidinyl}-3-[4-(trifluoromethyl)-2-biphenylyl]urea]: 62%; `Nc1ncc(Cl)cc1-c1ccc(Oc2ncc(NC(=O)Nc3cc(C(F)(F)F)ccc3-n3cc(Cl)cn3)cn2)cc1` [Example 15-63, 1-{2-[4-(2-amino-5-chloro-3-pyridinyl)phenoxy]-5-pyrimidinyl}-3-[2-(4-chloro-1H-pyrazol-1-yl)-5-(trifluoromethyl)phenyl]urea]: 53%. For the molecule `Nc1ncc(Cl)cc1-c1ccc(Oc2ncc(NC(=O)Nc3ccc(C(F)(F)F)cc3C(F)(F)F)cn2)cc1` [Example 15-77, 1-{2-[4-(2-amino-5-chloro-3-pyridinyl)phenoxy]-5-pyrimidinyl}-3-[2,4-bis(trifluoromethyl)phenyl]urea], the “Percent improvement (%)” value was 55%. On the same count and under the same terms, next, `Nc1ncc(C(F)(F)F)cc1-c1ccc(Oc2ncc(NC(=O)Nc3cc(C(F)(F)F)ccc3-n3cc(Cl)cn3)cn2)cc1` [Example 15-87, 1-(2-{4-[2-amino-5-(trifluoromethyl)-3-pyridinyl]phenoxy}-5-pyrimidinyl)-3-[2-(4-chloro-1H-pyrazol-1-yl)-5-(trifluoromethyl)phenyl]urea]: 57%; `CS(=O)(=O)c1ccc(C(F)(F)F)cc1NC(=O)Nc1cnc(Oc2ccc(-c3cc(C(F)(F)F)cnc3N)cc2)nc1` [Example 15-98, 1-(2-{4-[2-amino-5-(trifluoromethyl)-3-pyridinyl]phenoxy}-5-pyrimidinyl)-3-[2-(methylsulfonyl)-5-(trifluoromethyl)phenyl]urea]: 57%; `CS(=O)(=O)c1ccc(C(F)(F)F)cc1NC(=O)Nc1cnc(Oc2ccc(-c3cc(Cl)cnc3N)cc2)nc1` [Example 15-104, 1-{2-[4-(2-amino-5-chloro-3-pyridinyl)phenoxy]-5-pyrimidinyl}-3-[2-(methylsulfonyl)-5-(trifluoromethyl)phenyl]urea]: 54%. As to `CN(C)c1ccn2ncc(-c3ccc(Oc4ncc(NC(=O)Nc5cc(C(F)(F)F)ccc5-c5cccnc5)cn4)cc3)c2n1` [Example 21-37, 1-(2-{4-[5-(dimethylamino)pyrazolo[1,5-a]pyrimidin-3-yl]phenoxy}-5-pyrimidinyl)-3-[2-(3-pyridinyl)-5-(trifluoromethyl)phenyl]urea], the “Percent improvement (%)” value is listed as 67%. Consider `CN(C)c1ccn2ncc(-c3ccc(Oc4ncc(NC(=O)Nc5cc(C(F)(F)F)ccc5-c5ccnn5C)cn4)cc3)c2n1` [Example 21-51, 1-(2-{4-[5-(dimethylamino)pyrazolo[1,5-a]pyrimidin-3-yl]phenoxy}-5-pyrimidinyl)-3-[2-(1-methyl-1H-pyrazol-5-yl)-5-(trifluoromethyl)phenyl]urea], for which the “Percent improvement (%)” value stood at 68%.

Regarding `CN(C)c1ccn2ncc(-c3ccc(Oc4ncc(NC(=O)Nc5cc(C(F)(F)F)ccc5-c5ccccc5)cn4)cc3)c2n1` [Example 21-70, 1-(2-{4-[5-(dimethylamino)pyrazolo[1,5-a]pyrimidin-3-yl]phenoxy}-5-pyrimidinyl)-3-[4-(trifluoromethyl)-2-biphenylyl]urea], the “Percent improvement (%)” value is given as 61%. On to `Cc1cccc(-c2ccc(C(F)(F)F)cc2NC(=O)Nc2cnc(Oc3ccc(-c4cnn5ccc(N(C)C)nc45)cc3)nc2)c1` [Example 21-73, 1-(2-{4-[5-(dimethylamino)pyrazolo[1,5-a]pyrimidin-3-yl]phenoxy}-5-pyrimidinyl)-3-[3′-methyl-4-(trifluoromethyl)-2-biphenylyl]urea], for which the “Percent improvement (%)” value is on record as 62%.

Staying with this test, now noted: day 24, test substance oral twice a day over 10 days, 3 hours after last administration, experiment with tramadol as positive control (Table 7).
Turning to `Nc1ncc(Cl)cc1-c1ccc(Oc2ncc(NC(=O)Nc3cc(C(F)(F)F)ccc3-n3cccn3)cn2)cc1` [Example 7, 1-(2-(1H-pyrazol-1-yl)-5-(trifluoromethyl)phenyl)-3-(2-(4-(2-amino-5-chloropyridin-3-yl)phenoxy)pyrimidin-5-yl)urea], the “Percent improvement (%)” value stood at 61%. With `Cc1cn(-c2ccc(C(F)(F)F)cc2NC(=O)Nc2cnc(Oc3ccc(-c4cc(Cl)cnc4N)cc3)nc2)nn1` [Example 8-1, 1-(2-(4-(2-amino-5-chloropyridin-3-yl)phenoxy)pyrimidin-5-yl)-3-(2-(4-methyl-1H-1,2,3-triazol-1-yl)-5-(trifluoromethyl)phenyl)urea], the “Percent improvement (%)” value is reported as 60%. For `Nc1ncc(F)cc1-c1ccc(Oc2ncc(NC(=O)Nc3cc(C(F)(F)F)ccc3-n3ccnn3)cn2)cc1` [Example 14-5, 1-(2-(1H-1,2,3-triazol-1-yl)-5-(trifluoromethyl)phenyl)-3-(2-(4-(2-amino-5-fluoropyridin-3-yl)phenoxy)pyrimidin-5-yl)urea], the “Percent improvement (%)” value is 47%. With `Nc1ncc(Cl)cc1-c1ccc(Oc2ncc(NC(=O)Nc3ccc(C(F)(F)F)cc3Cl)cn2)cc1` [Example 15-6, 1-(2-(4-(2-amino-5-chloropyridin-3-yl)phenoxy)pyrimidin-5-yl)-3-(2-chloro-4-(trifluoromethyl)phenyl)urea], the “Percent improvement (%)” value is listed as 51%. Regarding `COc1ccn2ncc(-c3ccc(Oc4ncc(NC(=O)Nc5cc(C(F)(F)F)ccc5-c5cccnc5)cn4)cc3)c2n1` [Example 21-9, 1-(2-(4-(5-methoxypyrazolo[1,5-a]pyrimidin-3-yl)phenoxy)pyrimidin-5-yl)-3-(2-(pyridin-3-yl)-5-(trifluoromethyl)phenyl)urea], the “Percent improvement (%)” value is given as 64%. Take `O=C(Nc1cnc(Oc2ccc(-c3cnn4cccnc34)cc2)nc1)Nc1cc(C(F)(F)F)ccc1-c1cccnc1` [Example 21-13, 1-(2-(4-(pyrazolo[1,5-a]pyrimidin-3-yl)phenoxy)pyrimidin-5-yl)-3-(2-(pyridin-3-yl)-5-(trifluoromethyl)phenyl)urea]: the “Percent improvement (%)” value is recorded as 66%.
